# Read-outs that look alike come from different tables or passages of the source.
# Legend:
# [1] = system: Canadida albicans; assay: MIC, agar dilution method (Example XVI); format: cell-based
# From the text: (§1) In a manner similar to that described in Example V, the effectiveness of certain food-grade microbecides are compared with mono-esters in an agar dilution method. The very favorable results may be noted from Table 19.
# [2] = system: Staphylococcus aureus; assay: MIC, agar dilution method (Example XVI); format: cell-based
# From the text: as §1
# [3] = system: Aspergillus niger; assay: MIC, agar dilution method (Example XVI); format: cell-based
# From the text: as §1
# [4] = system: Bacillus subtilis; assay: MIC, agar dilution method (Example XVI); format: cell-based
# From the text: as §1
# [5] = system: Pseudomonas aeruginosa; assay: MIC, agar dilution method (Example XVI); format: cell-based
# From the text: as §1
# [6] = system: Escherichia coli; assay: MIC, agar dilution method (Example XVI); format: cell-based
# From the text: as §1
# [7] = system: Corynebacteria; assay: MIC, broth dilution (Examples I/II); format: cell-based, Corynebacterium sp. (10700); conditions: Table 8, Corynebacteria; for MIC (second value, in parentheses): parentheses not explained
# Description: (§2) In order to establish comparative bactericidal and fungicidal results with homologous fatty acids, a series of experiments was performed with thirty straight-chain fatty acids and derivatives thereof. Eight different gram-negative and twelve different gram-positive organisms, representing a very broad spectrum of organisms, were used in these experiments including the fungus Candida (a yeast). Additionally, fatty acids were chosen to show the effects of saturation versus unsaturation, in the fatty acid claim. Standard solutions of the fatty acids and their derivatives were prepared by first dissolving the weighed compounds in 1 to 2 ml of 95% ethanol and immediately pouring this solution into 200 ml of Tripticase Soy Broth. These lipid compounds which are insoluble in water and broth precipitated into very small crystals or droplets. The tubes containing the suspension were warmed to approximately 70° C and were then placed in an ultrasonic tank for further solubilization of the lipid derivatives.
# (§3) Standard solutions (or suspensions) at 1,000 μg/ml were twofold serially diluted with additional broth to a concentration of 125 μg/ml. A 4-ml amount of each dilution was then quickly, and with constant agitation, dispensed into appropriately labeled screw-capped glass tubes (16 by 125 mm). The tubes were sterilized with steam at 15 psi for 15 minutes. After sterilization, all tubes were cooled and incubated overnight at 35° C to insure sterility.
# (§4) All compounds were compared on a molar (micromoles/milliliter) rather than on a mass basis. In the following lists of organisms used, those followed by a parenthetical number are registered with the American Type Culture Collection (ATCC); the remainder were isolates from Providence Hospital or Northland Laboratory.
# (§5) One drop (0.04 ± 0.01 ml) of an 18-hr broth culture containing 10^7 and 10^9 organisms/ml was added to each dilution of the test compound, as well as to a tube of plain broth which served as the positive control. After inoculation, the contents of each tube were well mixed, and the tubes were incubated at 35° C in a 5% carbon dioxide + […] atmosphere.
# (§6) The MIC is defined as the lowest concentration of compound at which no […] evidence of growth was observed when turbidity of the inoculated broth dilutions was compared with control tubes. […] Only a one-tube difference between the bactericidal and bacteriostatic concentrations was normally observed.
# (§7) Standard solutions (1000 μg/ml) of three fatty acids and polyglycerol esters thereof were prepared as described in Example I. Also sucrose esters were prepared by transferring the weighed compounds (0.2 gm. dissolved in 1 ml absolute methanol) into 200 ml of sterile Trypticase Soy Broth (TSB). These standard solutions (1000 μg/ml) were twofold serially diluted with additional sterile broth to a concentration of 125 μg/ml. A 3.8 aliquot of each dilution was asceptically delivered into sterile screw-capped culture tubes. All tubes were incubated overnight at 36° C to insure sterility. The microorganisms used in this example were the same as those used in Example I.
# (§8) The inoculum, 0.05 ml of an 13-24 hour TSB culture (approximately 10^9 organisms/ml) was asceptically delivered into all dilutions of the compounds, mixed well, and incubated at 36° C. A tube of inoculated broth without the compound served as a positive control and an uninoculated set of dilutions incubated along with the test dilutions, served as a negative control.
# (§9) In those cases in which the test compound itself caused turbidity, an aliquot (0.015 ml) of the mixed broth was inoculated onto an agar plate and incubated at 36° C for examination, as described in Example I. The control procedure of Example I was also repeated. The lauric, capric, and oleic acids were used as internal controls and for comparison to Example I. The minimal inhibitory concentrations (μmole/ml) for the compounds studied are given in Tables 7 and 8.
# [8] = system: Nocardia asteroides; assay: MIC, broth dilution (Examples I/II); format: cell-based, Nocardia asteroids (3308); conditions: Table 8, Nocardia asteroides; for MIC (second value, in parentheses): parentheses not explained
# Description: as §2, §3, §4, §5, §6, §7, §8, §9
# [9] = system: Sarcina; assay: MIC, broth dilution (Examples I/II); format: cell-based, Sarcina lutea (9431); conditions: for MIC: Table 8, Sarcina, > = no inhibition, max. tested
# Description: as §2, §3, §4, §5, §6, §7, §8, §9
# [10] = system: S. epidermidis; assay: MIC, broth dilution (Examples I/II); format: cell-based; conditions: for MIC: Table 8, Staph. epider., > = no inhibition, max. tested
# Description: as §2, §3, §4, §5, §6, §7, §8, §9
# [11] = system: Micrococci; assay: MIC, broth dilution (Examples I/II); format: cell-based, Micrococcus sp.; conditions: Table 8, Micrococci
# Description: as §2, §3, §4, §5, §6, §7, §8, §9
# [12] = system: Streptococcus Group A; assay: MIC, broth dilution (Examples I/II); format: cell-based, beta-hemolytic streptococci Group A; conditions: Table 8, Strep. Grp. A; for MIC (second value, in parentheses): parentheses not explained
# Description: as §2, §3, §4, §5, §6, §7, §8, §9
# [13] = system: Pneumococci; assay: MIC, broth dilution (Examples I/II); format: cell-based, pneumococcus (63001); conditions: Table 8, Pneumococci
# Description: as §2, §3, §4, §5, §6, §7, §8, §9
# [14] = system: Group A Strep.; assay: MIC of potassium soaps of unsaturated fatty acids (Example III); format: cell-based, Group A β-hemolytic Streptococci; conditions: Table 10, Group A Strep.
# [15] = system: Streptococcus Group D; assay: MIC, broth dilution (Examples I/II); format: cell-based; conditions: Table 3, Streptococcus Group D
# Description: as §2, §3, §4, §5, §6, §7, §8, §9
# [16] = Table 19, agar dilution, read-out: MIC
# [17] = Staphylococcus aureus, Table 19, agar dilution, read-out: MIC
# [18] = Aspergillus niger, Table 19, agar dilution, read-out: MIC
# [19] = Bacillus subtilis, Table 19, agar dilution, read-out: MIC
# [20] = Pseudomonas aeruginosa, Table 19, agar dilution, read-out: MIC
# [21] = Escherichia coli, Table 19, agar dilution, read-out: MIC
Molecule,MIC [7] [µM],MIC [8] [µM],MIC [9] [µM],MIC [10] [µM],MIC [11] [µM],MIC [12] [µM],MIC [13] [µM],MIC [14] [µM],further results
C/C=C/C=C/C(=O)O [Sorbic acid],,,,,,,,,"MIC [1, 16]: 1000 mg/L; MIC [2, 17]: 1000 mg/L; MIC [3, 18]: 1000 mg/L; MIC [4, 19]: 1000 mg/L; MIC [5, 20]: 2000 mg/L; MIC [6, 21]: 1000 mg/L"
Sucrose oleate,> 1640,410,> 1640,> 1640,210,> 1640,50,,"MIC (second value, in parentheses) [7]: > 1640 µM; MIC (second value, in parentheses) [8]: 210 µM; MIC (second value, in parentheses) [12]: 410 µM"
Sucrose myristate,110,230,> 1840,> 1840,230,50,230,,"MIC (second value, in parentheses) [7]: 110 µM; MIC (second value, in parentheses) [8]: 110 µM; MIC (second value, in parentheses) [12]: 110 µM"
CCCOC(=O)c1ccc(O)cc1 [Propyl paraben],,,,,,,,,"MIC [1, 16]: 2500 mg/L; MIC [2, 17]: 2500 mg/L; MIC [3, 18]: 2500 mg/L; MIC [4, 19]: 2500 mg/L; MIC [5, 20]: > 10000 mg/L; MIC [6, 21]: 5000 mg/L"
CCCCCC=CCCCCCC=CCCCC(=O)O [.increment.^5 12],,,,,,,,20,
CCCCCCCC=CCCC=CCCCCC(=O)O [.increment.^6 10],,,,,,,,10,
COC(=O)c1ccc(O)cc1 [Methyl paraben],,,,,,,,,"MIC [1, 16]: 2500 mg/L; MIC [2, 17]: 5000 mg/L; MIC [3, 18]: 2500 mg/L; MIC [4, 19]: 5000 mg/L; MIC [5, 20]: 5000 mg/L; MIC [6, 21]: 2500 mg/L"
Sucrose elaidate,1640,200,> 1640,> 1640,820,200,200,,
CCCCCC=CCCCCC=CCCCCC(=O)O [.increment.^6 12],,,,,,,,10,
CCCCCC=CCCCC=CCCCCCC(=O)O [.increment.^7 12],,,,,,,,20,
CCCCCC/C=C\CCCCCCCC(=O)[O-].[Na+] [Palmitoleic acid sodium salt],,,,,,,,,MIC [1]: > 1000 mg/L; MIC ([2]; Staphylococcus aureus): 15.6 mg/L; MIC ([3]; Aspergillus niger): > 1000 mg/L; MIC ([4]; Bacillus subtilis): 500 mg/L; MIC ([5]; Pseudomonas aeruginosa): > 1000 mg/L; MIC ([6]; Escherichia coli): > 1000 mg/L
O=C(O)CCCCCCCCCCC(=O)O [Dodecanedioic acid],,,,,,,,,MIC [15]: Ni
CCCCC/C=C/CC/C=C/CCCCCCC(=O)O [.increment.^8 12],,,,,,,,20,
CCCCCCC=CCCCC=CCCCCC(=O)O [.increment.^6 11],,,,,,,,20,
CCCCCC=CCC=CCCCCCCCC(=O)O [.increment.^9 12],,,,,,,,10,
Oc1ccccc1 [Phenol],,,,,,,,,MIC [1]: 1250 to 2500 mg/L; MIC ([2]; Staphylococcus aureus): 1250 to 2500 mg/L; MIC ([3]; Aspergillus niger): 1250 mg/L; MIC ([4]; Bacillus subtilis): 1250 mg/L; MIC ([5]; Pseudomonas aeruginosa): 1250 mg/L; MIC ([6]; Escherichia coli): 2500 mg/L
Sucrose caprate,250,250,> 2000,> 2000,1000,60,60,,
Sucrose palmitate,430,430,430,860,260,100,50,,"MIC (second value, in parentheses) [7]: 260 µM; MIC (second value, in parentheses) [8]: > 1720 µM; Inhibition in words ([9]; Sarcina): only ester which inhibits S. epidermis and Sarcina; Inhibition in words ([10]; S. epidermis): only ester which inhibits S. epidermis; MIC (second value, in parentheses) [12]: 200 µM"
C[CH2][Hg][S]c1ccccc1C(=O)[O-].[Na+] [Thimerosal],,,,,,,,,"MIC ([1]; Table 19, agar dilution): 0.10 to 0.20 mg/L; MIC ([2]; Table 19, agar dilution): 0.78 mg/L; MIC ([3]; Table 19, agar dilution): 0.10 mg/L; MIC ([4]; Table 19, agar dilution): 0.39 mg/L; MIC ([5]; Table 19, agar dilution): 6.30 to 12.50 mg/L; MIC ([6]; Table 19, agar dilution): 1.60 mg/L"
Sucrose linoleate,> 1660,410,> 1660,> 1660,820,410,50,,"MIC (second value, in parentheses) [7]: 1660 µM; MIC (second value, in parentheses) [8]: 1660 µM; MIC (second value, in parentheses) [12]: 820 µM"
Sucrose laurate,470,470,> 1900,> 1900,1900,30,120,,"MIC (second value, in parentheses) [7]: 230 µM; MIC (second value, in parentheses) [8]: 1900 µM; MIC (second value, in parentheses) [12]: 120 µM"
